Assay results published in US20040254182A1, “Enhanced propertied pharmaceuticals” (priority 2000, published 2004).

Legend:
Escherichia coli 8739 = experiment: High resolution minimum inhibitory concentration (HRMIC) test vs E. coli 8739; assay type: cell-based; conditions: M9GY medium, 96-well microtiter plate, 10^6 CFU/mL, 30° C. for 24 h; first well with no growth
Protocol: (§1) Several compounds of this invention were tested for biological activity in vitro against Escherichia coli 8739 and Staphylococcus aureus 6538 described below. The following test procedures were employed.
(§2) MIC Determination: The lowest concentration of test compound required to inhibit Escherichia coli 8739 and Staphylococcus aureus 6538 was determined by a high resolution minimum inhibitory concentration (HRMIC) test. Varying amounts of the test compounds were added to minimal salts glucose medium (Maniatis, T., Fritsch, E. F., Sambrook, J. 1982 Molecular Cloning, page 68) supplemented with 0.1% yeast extract (M9GY) in a 96-well microtiter plate. […] serial dilutions were performed on a Biomek 2000 Workstation to obtain a range of closely spaced concentrations of test compound as shown in FIG. 1. A cell suspension of inoculum, adjusted to provide 10^6 CFU/mL in each well, was added to the microtiter plate. Microtiter plates were incubated at 30° C. for 24 h and then were checked for the presence or absence of microbial growth in each well.

[1] = test system: Staphylococcus aureus 6538; experiment: High resolution minimum inhibitory concentration (HRMIC) test vs S. aureus 6538; assay type: cell-based; conditions: M9GY medium, 96-well microtiter plate, 10^6 CFU/mL, 30° C. for 24 h; first well with no growth
Protocol: as §1, §2

Row | melting point [°C] | MIC vs E. coli 8739 Gram-negative (Escherichia coli 8739) [ppm AI] | MIC vs S. aureus 6538 Gram-positive [1] [ppm AI] | SMILES
1 | 135 to 143 | 3 | 0.45 | CCn1cc(C(=O)O)c(=O)c2cc(F)c(N3CCN(C(=O)OC(OC(=O)c4ccccc4)C(=O)OC(C)C)CC3)cc21 (centres unmarked) [Compound 8-2, 7-(4-[(Isopropoxycarbonyl)(benzoyloxy)methoxycarbonyl]-1-piperazinyl)-1-ethyl-6-fluoro-1,4-dihydro-4-oxo-3-quinolinecarboxylic acid]
2 | – | 0.2 | 0.9 | CCn1cc(C(=O)O)c(=O)c2cc(F)c(N3CCNCC3)cc21 [Norfloxacin, reference compound]

Continued, compound first:

Row | SMILES | melting point [°C] | MIC vs E. coli 8739 Gram-negative (Escherichia coli 8739) [ppm AI] | MIC vs S. aureus 6538 Gram-positive [1] [ppm AI]
3 | CCCCOC(=O)C(OC(=O)C(C)C)OC(=O)N1CCN(c2cc3c(cc2F)c(=O)c(C(=O)O)cn3CC)CC1 (centres unmarked) [Compound 8-1, 7-(4-[(Butoxycarbonyl)(2-methylpropanoyloxy)methoxycarbonyl]-1-piperazinyl)-1-ethyl-6-fluoro-1,4-dihydro-4-oxo-3-quinolinecarboxylic acid] | 151.5 to 160 | 2.5 | 0.06
4 | CCCCCCCCCCCC(=O)OC(OC(=O)N1CCN(c2cc3c(cc2F)c(=O)c(C(=O)O)cn3CC)CC1)C(=O)OC(C)C (centres unmarked) [Compound 8-3, 7-(4-[(Isopropoxycarbonyl)(dodecanoyloxy)methoxycarbonyl]-1-piperazinyl)-1-ethyl-6-fluoro-1,4-dihydro-4-oxo-3-quinolinecarboxylic acid] | 105.5 to 109.2 | 40 | 4.5
5 | CCn1cc(C(=O)O)c(=O)c2cc(F)c(N3CCN(C(=O)OC(OC(=O)C(C)c4ccc(CC(C)C)cc4)C(=O)OC(C)C)CC3)cc21 (centres unmarked) [Compound 8-4, 7-(4-[(2-[4-(2-Methylpropyl)phenyl]propanoyloxy)(isopropoxycarbonyl)methoxy-carbonyl]-1-piperazinyl)-1-ethyl-6-fluoro-1,4-dihydro-4-oxo-3-quinolinecarboxylic acid] | 88 to 96.5 | >1000 | 0.7
